Measured values as given in the supplement of paper PMC10307832.

How the values were obtained:
Assay in all cases: relative viability (nuclei count vs DMSO), 5 days (fraction); higher = more cells survive
Vemurafenib + Trametinib = compound: CCCS(=O)(=O)Nc1ccc(F)c(C(=O)c2c[nH]c3ncc(-c4ccc(Cl)cc4)cc23)c1F [Vemurafenib] + CC(=O)Nc1cccc(-n2c(=O)n(C3CC3)c(=O)c3c(Nc4ccc(I)cc4F)n(C)c(=O)c(C)c32)c1 [Trametinib] (partner 0.02 µM)
In short: (§1)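 The day after seeding in 1536-well plates, lung cancer cell lines were treated by pin tool with a single drug, or with a fixed anchor-drug dose together with five library-drug doses (not always all listed) in √10 steps. After 5 days, a combined fix-and-stain solution (final 0.05% Triton X-100, 1% formaldehyde, 1 ug/ml Hoechst) was added. Nuclei counted on 4× images gave relative viability as treated counts over vehicle counts, reported as the median of duplicate plates.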

OSI-027 + Phenformin = compound: COc1cccc2cc(-c3nc([C@H]4CC[C@H](C(=O)O)CC4)n4ncnc(N)c34)[nH]c12 [OSI-027] + N=C(N)NC(=N)NCCc1ccccc1 [Phenformin] (partner 250 µM)
In short: as §1

Alpelisib + Luminespib = compound: Cc1nc(NC(=O)N2CCC[C@H]2C(N)=O)sc1-c1ccnc(C(C)(C)C(F)(F)F)c1 [Alpelisib] + CCNC(=O)c1noc(-c2cc(C(C)C)c(O)cc2O)c1-c1ccc(CN2CCOCC2)cc1 [Luminespib] (partner 0.01 µM)
In short: as §1

Alpelisib + Pemetrexed = compound: Cc1nc(NC(=O)N2CCC[C@H]2C(N)=O)sc1-c1ccnc(C(C)(C)C(F)(F)F)c1 [Alpelisib] + Nc1nc2[nH]cc(CCc3ccc(C(=O)N[C@@H](CCC(=O)O)C(=O)O)cc3)c2c(=O)[nH]1 [Pemetrexed] (partner 0.2 µM)
In short: as §1

| Cell Line | relative viability (Vemurafenib + Trametinib; first compound 0.03162 µM) | relative viability (Vemurafenib + Trametinib; first compound 0.1 µM) | relative viability (Vemurafenib + Trametinib; first compound 0.3162 µM) | relative viability (Vemurafenib + Trametinib; first compound 1 µM) | relative viability (OSI-027 + Phenformin; first compound 0.01 µM) | relative viability (OSI-027 + Phenformin; first compound 0.03162 µM) | relative viability (OSI-027 + Phenformin; first compound 0.1 µM) | relative viability (OSI-027 + Phenformin; first compound 0.3162 µM) | relative viability (OSI-027 + Phenformin; first compound 1 µM) | relative viability (Alpelisib + Luminespib; first compound 0.04 µM) | relative viability (Alpelisib + Luminespib; first compound 0.1265 µM) | relative viability (Alpelisib + Luminespib; first compound 0.4 µM) | relative viability (Alpelisib + Luminespib; first compound 1.265 µM) | relative viability (Alpelisib + Luminespib; first compound 4 µM) | relative viability (Alpelisib + Pemetrexed; first compound 0.04 µM) | relative viability (Alpelisib + Pemetrexed; first compound 0.1265 µM) | relative viability (Alpelisib + Pemetrexed; first compound 0.4 µM) | relative viability (Alpelisib + Pemetrexed; first compound 1.265 µM) | relative viability (Alpelisib + Pemetrexed; first compound 4 µM) |
| --- | --- | --- | --- | --- | --- | --- | --- | --- | --- | --- | --- | --- | --- | --- | --- | --- | --- | --- | --- |
| NCI-H2087 | 0.204 | 0.14 | 0.292 | 0.256 | 0.495 | 0.492 | 0.424 | 0.398 | 0.271 | 0.176 | 0.198 | 0.174 | 0.17 | 0.159 | 0.634 | 0.625 | 0.679 | 0.65 | 0.606 |
| NCI-H2126 | 0.513 | 0.535 | 0.564 | 0.543 | 0.527 | 0.555 | 0.437 | 0.405 | 0.404 | 0.946 | 0.848 | 0.854 | 0.776 | 0.667 | 0.686 | 0.752 | 0.674 | 0.584 | 0.509 |
| NCI-H2170 | 0.888 | – | 0.846 | 0.89 | 0.429 | 0.401 | 0.431 | 0.436 | 0.275 | 0.561 | 0.875 | 1.12 | 0.575 | 0.373 | 0.277 | 0.23 | 0.281 | 0.29 | 0.265 |
| NCI-H2228 | 0.357 | 0.524 | 0.668 | 0.439 | 0.305 | 0.324 | 0.307 | 0.251 | 0.198 | 0.142 | 0.132 | 0.0885 | 0.101 | 0.144 | 0.35 | 0.228 | 0.39 | 0.272 | 0.319 |
| NCI-H2342 | 0.921 | 0.747 | 0.978 | 0.769 | 0.524 | 0.533 | 0.564 | 0.481 | 0.445 | 0.762 | 0.696 | 0.686 | 0.568 | 0.488 | 0.843 | 0.77 | 0.694 | 0.686 | 0.447 |
| NCI-H2347 | 0.266 | 0.215 | 0.263 | 0.251 | 0.442 | 0.371 | 0.293 | 0.262 | 0.296 | 0.476 | 0.632 | 0.626 | 0.503 | 0.522 | 0.459 | 0.418 | 0.442 | 0.425 | 0.405 |
| NCI-H2405 | 0.622 | 0.473 | – | 0.608 | 0.39 | 0.355 | 0.338 | 0.327 | 0.27 | 0.736 | 0.463 | 0.658 | 0.486 | 0.418 | 1.08 | 0.975 | 1.02 | 0.814 | 0.571 |
| NCI-H3122 | 0.219 | 0.271 | 0.243 | 0.304 | 0.409 | 0.41 | 0.454 | 0.443 | 0.288 | 0.077 | 0.0664 | 0.0978 | 0.0788 | 0.0851 | 0.208 | 0.208 | 0.204 | 0.197 | 0.173 |
